The source of these data is patent EP0106571A2, “Prophylactic substance or composition” (priority 1982, dated 1984).

What all share (assay type): cell-based
In one assay the test system is human cancer cells. The assay can be described thus: Proliferation suppressive effect of prostaglandins (statement, no method). Conditions: compared with PGEI; no conditions given.
Assay [1] deals with Human osteogenic sarcoma cells. As to the kind of experiment: Colony growth over three weeks with fatty acids or prostaglandins, Amidoschwarz stain. The method, then: Human osteogenic sarcoma cells were seeded into 50 ml Greiner plastic flasks and maintained exactly as explained in Example 4.
At the end of three weeks the culture flasks were stained with a 0.1% Amidoschwarz stain solution.

Assay [2] deals with MG63 Human osteogenic sarcoma cells. As to the kind of experiment: Colony formation after 7 days with two additions of fatty acid. The note with it: for proliferation suppressive action: higher levels of supplementation, 80 and 100µg/ml. The method, then:
MG63 Human osteogenic sarcoma cells were seeded in culture flasks as described in Examples 4 and 5. 2,000 cells were seeded in each flask. Duplicate sets of flasks were used for each of the fatty acids tested. The following fatty acids dissolved in standard growth medium were added to the cells in culture, after allowing 2 days for cell attachment, and again after a further 3 days. Each culture therefore had only 2 additions of the relevant fatty acid. The cells were stained and examined at the end of 7 days in culture: • 1. Culture medium only - control. • 2. 5, 10, 20, 40, 60, 80 and 100µg oleic acid respectively /ml culture medium. […] 5; 10, 20, 40, 60, 80 and 100µg LA respectively /ml culture medium. • 4. 5, 10, 20, 40, 60, 80 and […] ALA respectively ./ml culture. medium. • 5. 5, 10, 20, 40, 60, 80 and 100µg/ml AA respectively /ml culture medium. • 6. 5, 10, 20, 40, 60, 80 and 100µg/ml EPA respectively /ml culture medium. • ..7.

Setting [3] is: 5 µg/ml of medium added every second day.
[4] abbreviates: 20 µg/ml of medium added every second day.

On to `CCCCC[C@H](O)/C=C/[C@@H]1[C@@H](C/C=C\CCCC(=O)O)[C@@H](O)C[C@H]1O` [PGF2a], for which the “proliferation suppressive effect on human cancer cells” value in the assay with human cancer cells is “no effect at all”.
Turning to `CCCCC[C@H](O)/C=C/[C@@H]1[C@@H](CCCCCCC(=O)O)[C@@H](O)C[C@H]1O` [PGF1a], in the assay with human cancer cells, the “proliferation suppressive effect on human cancer cells” value is “no effect at all”. In assay [1] (setting [3]), the “growth achieved relative to control cultures” value is reported as “about the same growth as the control cultures” and the “growth suppressive effect on the cancer cells in culture (summary)” value (from here on “growth suppressive effect”) was “no effect at all”.
With `CCCCCCCC/C=C\CCCCCCCC(=O)O` [OA, Oleic acid], the densities of colonies result in assay [2] (all levels of supplementation between 5 and 100µg/ml, 2 additions, compared with culture medium only) is “equal densities of colonies”. Also, in assay [1] (setting [4]), the “growth achieved relative to control cultures” value is listed as “about the same growth as control cultures” and the “growth suppressive effect” value is “no suppressive effect”.
In the case of `CC/C=C\C/C=C\C/C=C\CCCCCCCC(=O)O` [ALA, a-linolenic acid, reference compound], the proliferation suppressive action result in assay [2] (2 additions) is on record as “definite proliferation suppressive action”.
With `CCCCC/C=C\C/C=C\CCCCCCCC(=O)O` [LA, linoleic acid], in assay [2] (2 additions), the proliferation suppressive action result was “definite proliferation suppressive action”. Moreover, the “growth suppressive effect” value in assay [1] (setting [4]) was “some growth suppressive effect”. The activity at 20 µg/mL in assay [1] (Homo sapiens, 504 h, 20 µg/ml of medium added every second day, read-out: growth achieved relative to control cultures) is roughly 75%.
As to `CCCCC[C@H](O)/C=C/[C@H]1[C@H](O)CC(=O)[C@@H]1CCCCCCC(=O)O` [PGE1, prostaglandin E 1], the “growth suppressive effect” value in assay [1] (setting [3]) was “more pronounced growth suppressive effect”. Besides, the activity at 5 µg/mL in assay [1] (Homo sapiens, 504 h, 5 µg/ml of medium added every second day, read-out: growth achieved relative to control cultures) was roughly 25%.
On to `CCCCC[C@H](O)/C=C/[C@H]1C=CC(=O)[C@@H]1CCCCCCC(=O)O` [PGA1], for which, in assay [1] (setting [3]), the “growth suppressive effect” value is “more pronounced growth suppressive effect”.
In the case of `CCCCC/C=C\C/C=C\C/C=C\C/C=C\CCCC(=O)O` [AA, arachidonic acid], the “suppressive action on proliferation and colony formation” value in assay [2] (dose series 5 to 100 µg/ml, 2 additions) is “almost equal, progressive, suppressive action”. For the same molecule, the “cell growth and colony formation” value in assay [2] (levels of supplementation above 40 µg/ml culture medium, 2 additions) is listed as “completely suppressed”. Besides, in assay [2] (supplementation levels between 40 and 100 µg/ml), the “cells or colonies found on microscopic examination” value was “Not a single cell or colony of cells could be found”. For the same molecule, in assay [1] (setting [4]), the “growth suppressive effect” value is on record as “complete growth suppressive effect”. Besides, the “colonies in supplemented cultures” value in assay [1] (20 µg/ml of medium added every second day, 500, 1,000 and 2,000 cell density cultures) is “completely devoid of any colonies”.
